row,SMILES,melting point [°C]
1,Cc1cc(OC2CCN(C(=O)OC(C)(C)C)CC2)ccc1[N+](=O)[O-],104 to 106
2,CCCCCCCCCCCCCCCCCCOc1cc(OCCCCC(=O)OC)cc(C(=O)O)c1,68 to 70
3,CN(CCOc1ccc(C=C2SC(=O)NC2=O)cc1)c1ccccn1,177 to 179
4,OCC1Oc2ccccc2OC1CO (stereo not drawn),119 to 120
5,COc1ccc(CN(C)CCCSc2ccc(NC(=O)c3cccc4c(=O)c5cccc(F)c5[nH]c34)cc2)cc1OC,120 to 130
6,CC1(C)OC(c2ccc(S(C)(=O)=O)cc2)=C(c2cc(F)cc(F)c2)C1=O,141 to 142
7,Oc1cccc(C=C2c3ccccc3Cc3ccccc32)c1,196
8,CON1C=C2N=NC3=C(N2C1)N(C1CCCCC1)CC(C)=C3,174 to 177
9,O=C(CSc1ccncc1)C12CC3CC(CC(C3)C1)C2,114 to 115
10,CCOC(=O)c1ccc(-c2cc3c(NCc4ccc(OC)nc4)ncnc3[nH]2)cc1,305
11,CS(=O)(=O)c1ccc(-c2cnn(CC(=O)c3ccccc3)c(=O)c2-c2ccc(F)cc2)cc1,228 to 230
12,O=C(CC(Cc1cccc2ccccc12)C(=O)N1C(=O)OCC1Cc1ccccc1)N1CCOCC1 (stereo not drawn),80 to 82
13,CCN(CC)C(=O)c1cc(-c2ccc(OC)cc2)c2ccccc2c1,147 to 149
14,Cc1[nH]cnc1CC1CCc2c(C)c3cc(Cl)ccc3n2C1=O (stereo not drawn),244 to 246
15,COc1ccc2c(c1)CCC1CCNC(=O)C(CCNC(C)C)=C21 (stereo not drawn),147 to 149
16,CSc1nc2ccnn2c(N)c1C#N,> 240
17,Cc1cc(SCc2ccc(-c3ccc(C(F)(F)F)cc3)cc2)c(Cl)cc1OCC(=O)O,161 to 162
18,CN1C(=O)[C@H](NC(=O)/C=C/c2ccc(Cl)c(Cl)c2)N=C(c2ccccc2)c2ccccc21,145 to 147
19,Cc1nc2c(Cc3ccccc3)cnn2c(=O)[nH]1,225
20,CC(C)(C)OC(=O)n1cccc1-c1ccc2c(c1)C(C)(C)OC(=O)N2,172 to 173
21,CC12CCC(O)C(O)C1=CCC1C2CCC2(C)C(O)C(O)CC12 (stereo not drawn),238 to 241
22,COc1ccc(C(=O)Cc2ccc(OC)c(F)c2)cc1,117 to 118
23,CN(C)c1cc(F)c(S(=O)(=O)N(C)C)cc1-n1c(=O)cc(C(F)(F)F)n(C)c1=O,185 to 194

row,SMILES,melting point [°C]
1,O=C(c1[nH]ncc1-c1csc(Nc2ncccn2)n1)C1CC1,244
2,CCS(=O)(=O)Nc1cc(-n2c(=O)cc(C(F)(F)F)n(N)c2=O)c(F)cc1C#N,190
3,CCc1c(F)c(=O)oc2cc(O)cc(O)c12,227 to 229
4,CC(C)c1cccc(C(C)C)c1NC(=O)CCCCCSc1nc2cnccc2[nH]1,96 to 98
5,COc1cc(C=CC(=O)Nc2cnc3ccc(C)cc3c2-c2ccccc2Cl)cc(OC)c1O,235 to 236
6,Cc1ccc(-n2c(=O)[nH]c3ccccc3c2=O)cc1,267
7,CC(C)c1c(C=O)c(-c2ccc(F)cc2)n2ccccc12,97 to 98
8,O=C1c2ccccc2C(O)N1CCCSc1ccncc1 (stereo not drawn),132 to 134
9,COc1cc(CCC[C@H]2OC(=O)NC2=O)ccc1OCc1nc(-c2ccco2)oc1C,122 to 123
10,CN(C)c1c(C(=O)c2ccccc2)[nH]c2cc(Cl)ccc12,178 to 180
11,O=C(O)c1cccc(N2CCN(CCc3ccccc3)CC2)c1F,85.5 to 87.5
12,CC(C(=O)NCCN(C)C)n1c(-c2ccc(Cl)cc2)nc2cccnc21 (stereo not drawn),130 to 133
13,CC(CBr)(CBr)C(=O)O,60 to 62
14,COc1ccc(C(=O)N2CCC(N3CC4(CCN(Cc5ccccc5)CC4)c4ccccc43)c3ccccc32)cc1OC (stereo not drawn),155 to 157
15,CC(=O)OCC1OC(n2c(Br)c(C#N)c3cc(Cl)c(Cl)cc32)C(O)C1O (stereo not drawn),103 to 105
16,O=C(Nc1ccc(-c2nn(C(=O)c3ccccc3)c3c2Cc2ccccc2-3)cc1)c1ccccc1,241
17,CCc1cccc(C)c1CNc1nc(CO)cn2c(C)c(C)nc12,166
18,COc1ccc(C(=O)CCC2OCCO2)cc1OC,103 to 105
19,Cc1oncc1C(=O)N1CCCC1,51 to 53
20,COc1ccc(F)c2c(O)c(C=O)ccc12,156 to 158
21,Nc1ccccc1CCN1CCN(c2ccccc2)CC1,103
22,C=C=Cn1[nH]c2ccccc2c1=O,126 to 130
23,O=C1NCCc2c(OCCCN3CCCCC3)cccc21,112 to 114

row,SMILES,melting point [°C]
1,CC(=O)N1CCN(c2c(-c3ccccc3)sc3ccccc23)CC1,167 to 169
2,COc1ccc(-c2nn(Cc3ccc(Cl)cc3)c(=S)cc2-c2ccncc2)cc1,144 to 145
3,O=S1(=O)c2ccccc2-c2ccc(F)cc21,229 to 233
4,CCOC(=O)c1c2ccc(CC(=O)NOCC(=O)N3CCCCC3)ccc-2c(C(=O)OCC)c1N,153 to 155
5,Cc1oc(-c2ccc(-c3ccccc3)cc2)nc1CCOc1ccc(C[C@H](OCC(F)(F)F)C(=O)O)c2ccccc12,199 to 200
6,O=C(O)Cc1ccccc1Cc1nc2c(F)c(F)cc(F)c2s1,124 to 126
7,CC(=O)Nc1cc2c(cc1O)CCN(Cc1ccccc1)CC2c1ccccc1 (stereo not drawn),180
8,CS(=O)(=O)c1ccc(-c2cnn(-c3ccc(F)cc3)c(=O)c2Cc2ccccc2)cc1,180 to 182
9,CC(=O)OC1CC2CCC3C(CCC4(C)C(O)C(N5CCCC5)CC34)C2(C)CC1N1CCOCC1 (stereo not drawn),112 to 118
10,CSc1nc(CO)c(CO)n1-c1ccccc1,137 to 138
11,O=C(O)Cc1noc(CC(=O)O)n1,109 to 111
12,CN(c1ncccc1[N+](=O)[O-])C1CCNCC1,116 to 117
13,COC(=O)c1cccc(-c2cc(CCNC(=O)C3CCC3)c3cc(OC)ccc3c2)c1,128 to 130
14,CCN1CCC2(CC1)COc1cc3c(cc12)N(C(=O)c1ccc(-c2ccc(-c4noc(C)n4)cc2C)cc1)CC3,202 to 204
15,CCOC(=O)c1cc(OCc2ccccc2)c2nc(C)c(C)n2c1,140 to 141
16,CCNC(=O)c1cc([Si](C)(C)C)sc1[Si](C)(C)C,106 to 111
17,CCC1COC(NC(=O)c2ccc(Cl)c(Cl)c2)C2CCCCN12 (stereo not drawn),214
18,O=c1c[n+]([O-])c2cc(Cl)c(Cl)cc2[nH]1,278 to 280
19,CCCC(=O)C(=O)NCC(OCC)(OCC)c1ccncc1,95 to 96
20,COC(=O)C=Cc1ccc(-n2ccn(-c3ccc(C#N)cc3)c2=O)cc1,210 to 212
21,COc1ccc(-n2nc(Sc3cccc(Cl)c3)c(C)c(C#N)c2=O)cc1,123 to 124

# The remaining lines, values ahead:
row,melting point [°C],SMILES
1,148,CC(=O)N(C(C)=O)c1ccc(Br)c([N+](=O)[O-])c1OCc1ccccc1
2,141 to 143,CCOC(=O)c1cn([C@@H](CSc2cccc(Cl)c2Cl)[C@H](C)O)cn1
3,214 to 216,O=C(NCc1ccc(Cl)cc1)c1cnc2c(CNCc3ccccc3)cc(CN3CCOCC3)cc2c1O
4,174 to 175,CC/C=C(\c1ccccc1N1CCCCC1)C(C(N)=O)c1ccc(C(=O)O)cc1 (stereo not drawn)
5,165 to 168,CC1(CCS)C(=O)N2CCCC(C(=O)O)N2C1=O (stereo not drawn)
6,164 to 165,O=C(OCc1ccccc1)c1ccc(OC(=O)c2ccc(O)c(C34CC5CC(CC(C5)C3)C4)c2)cc1
7,65 to 66,O=C(O)CCCc1ccc(-c2ccccc2F)cc1
8,244,O=C(Nc1ccc2ccc(Cl)nc2n1)c1cccs1
9,167 to 168,O=C(Nc1ccc(F)cc1)c1cccc([N+](=O)[O-])c1
10,142,Nc1ccc(N(CCO)C(=O)OCc2ccccc2)c(O)c1
11,169 to 171,CC1=C(c2ccncc2Cl)SCC(=O)N1
12,200 to 202,COc1ccc(C(=O)O)c([N+](=O)[O-])c1OC
13,133 to 134,O=C(C=Cc1ccccc1C(=O)Cl)c1ccc([N+](=O)[O-])cc1
14,284 to 285,OCc1ccc(-c2cc3nccnc3[nH]2)cc1
15,165 to 167,COc1nc(C)c(C)nc1NC(=O)N1CCN(c2ccccc2C(C)C)CC1
16,39 to 40,Fc1ccc(C=Nc2ccccc2)cc1
17,165,CC(=O)Nc1csc(Br)n1
18,100 to 102,CCCCCCCCCCCCc1ccc(NC(C)=O)cc1

row,melting point [°C],SMILES
1,154 to 155,COCC(COC)Nc1cc(C)nn2c(-c3ccc(Cl)cc3Cl)c(C)cc12
2,133 to 134,C/C(=C(\C#N)C(N)=S)N1CCCN(c2cccc(Cl)c2)CC1
3,236 to 237,COC(=O)Nc1ccccc1C(=O)Nc1nnn[nH]1
4,64.8 to 66.3,CCCCCS(=O)(=O)NC(=O)/C=C/c1ccc(OCCOC)cc1OCC1CC1
5,155 to 158,CC(=O)CC(=O)C=Cc1c[nH]c2ccccc12
6,130 to 132,CCN1C(=O)CON(C(C)=O)C1c1ccccc1 (stereo not drawn)
7,159 to 161,OCc1n[nH]c(-c2ccc(CN3CCCCCC3)s2)n1
8,112 to 115,CCOC(=O)CNc1ncccc1NC(=O)c1ccc(C)s1
9,115 to 118,COC(=O)CC1CCN(C(=O)N2CCC(c3ccc(C#N)cc3)CC2)CC1
10,48 to 53,CCCCC/C=C\C/C=C\CCCCCCC[C@@H](C[C@@H]1OC(=O)[C@H]1CC)OC(=O)[C@H](CC(C)C)NC=O
11,207 to 209,O=c1n(-c2cc(O)c([N+](=O)[O-])cc2F)nc2ccc(Cl)cn12
12,217 to 218,CCn1cc(C(=O)c2ccccc2)c(=O)c2cn(C)nc21
13,74 to 75,CCOC(=O)CCCn1ccnc1CSc1ccc(N)cc1
14,101 to 102,Cc1c(C)n(CC2CC2C)c2c(OCc3ccc(F)cc3F)nncc12 (stereo not drawn)
15,183 to 185,O=C1CN(S(=O)(=O)c2ccccc2)c2ccccc2N1
16,70 to 72,C=CN1NCC2CC3=C(C=CC(c4ccc(F)cc4)C3)CC21C (stereo not drawn)
17,60 to 62,Nc1sc2c(c1C(=O)c1ccc(Cl)cc1)CCC(Cc1ccccc1)C2 (stereo not drawn)
18,155 to 158,COC(=O)c1nc(-c2ccc(Cl)c(OC)c2F)nc(N)c1OC

# Source: a melting point compilation (Tetko et al.; mined from patent text by program, amines drawn as free bases though some values may be those of a salt)
